The test system of test [1] is PD-L1 (U2OS/PD-L1 cells, Jurkat-PD-1-SHP cells). As to the kind of experiment: Src Homology Region 2 Domain-containing Phosphatase (SHP) assay. Particulars: Homo sapiens; U2OS/PD-L1 + Jurkat-PD-1-SHP cells, 2 hours. The class given is cell-based. On the procedure:
Example 1B. Src Homology Region 2 Domain-containing Phosphatase (SHP) Assay
U2OS/PD-L1 cells (DiscoveRx Corporation) were maintained in McCoy’s 5A medium with addition of 10% FBS, 0.25 µg/mL Puromycin. After removing the culture media, the cell medium was replaced with assay medium (RPMI1640 medium with 1% FBS). The U2OS/PD-L1 cells were then added in 384-well black clear bottom assay plate (CELLCOAT® Tissue Culture Plates, Greiner Bio-One) at 5000 cells per well in 20 uL assay medium. Test compounds were prepared by serial dilution in DMSO and 125 nL compound were first transferred to the 384 REMP plate well (Thermofisher) by ECHO liquid handler (Labcyte) followed with addition of 27.5 uL assay medium. 5 µL/well compounds in the assay medium were transferred to the cell plate with 0.05% DMSO in the final assay at 0.25 µM. Jurkat-PD-1-SHP cells (DiscoveRx Corporation) were cultured in RPMI1640 medium supplemented with 10% FBS, 250 µg/mL Hygromycin B, 500 µg/mL G418. After the replacement of culture media with assay medium, 5,000 Jurkat-PD-1-SHP cells in 20 µL were dispensed into each well. The assay plate was incubated at 37° C., 5% CO2 for 2 hours before 2.5 uL PathHunter reagent 1 (DiscoveRx Corporation) were added to each well. The assay plate was shaken for 1 min at 350 rpm in the dark followed with addition of 10 uL PathHunter reagent 2 (DiscoveRx Corporation). Chemiluminescent signal was recorded with TopCount reader (Perkin Elmer) after incubation at room temperature for 1 hour. Wells with DMSO were served as the positive controls and wells containing no cells were used as negative controls. IC50 determination was performed by fitting the curve of percentage of control activity versus the log of the compound concentration using the GraphPad Prism 6.0 software.

For test [2], the target named is T1, PD-L1 on CD14+ cells in human whole blood (Homo sapiens, UniProt Q9NZQ7).
T1 construct: Cells were gated on CD14+ (BD Biosciences) and PD-L1 expression determined by mean fluorescence intensity; host or cells: CD14+ cells in normal human whole blood, stimulated with human interferon gamma
T1 sequence (Q9NZQ7 19-290): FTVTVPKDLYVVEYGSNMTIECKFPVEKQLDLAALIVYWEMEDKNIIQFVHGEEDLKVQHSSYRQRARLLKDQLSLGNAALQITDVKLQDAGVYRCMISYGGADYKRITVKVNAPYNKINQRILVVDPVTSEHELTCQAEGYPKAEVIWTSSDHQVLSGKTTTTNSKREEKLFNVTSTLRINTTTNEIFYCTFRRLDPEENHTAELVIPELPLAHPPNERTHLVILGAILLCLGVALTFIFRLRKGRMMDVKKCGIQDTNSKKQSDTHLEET
Put plainly: PD-L1 whole blood internalization assay. Type of test: cell-based. The conditions noted are these: 1 ng/mL interferon γ, CD14+ gated, 24 hour. On the procedure:
PD-L1 Whole Blood Internalization Assay
To determine PD-L1 internalization in human whole blood, normal human blood (Biological Specialty Corp, Colmar. PA) was incubated in the presence or absence of a concentration range of test compounds and 1 ng/mL human interferon γ (R&D Systems Inc. Minn. MN) in a 96 well “2 mL Assay Block” (Corning, Corning NY) for 18-20 hours at 37 °C. Blood was then stained with PD-L1 (MIH1, eBioscience; or BD Biosciences San Jose, CA), CD14 (Life Technologies, Carlsbad, CA) for 30 minutes in the dark at room temperature. Whole Blood/red cells were lysed/fixed (lysis buffer BD Biosciences) for 5 minutes at 37 °C in the dark and then centrifuged at 1600 RPM for 5 minutes. Cells were resuspended in Stain Buffer (BD Bioscience, San Jose, CA) and transferred into 96 well round bottom plates (Coming). Cells were gated on CD14+ (BD Biosciences) and PD-L1 expression determined by mean fluorescence intensity (MFI) (BD LSRFortessa® X-20). IC50 determination was performed by fitting the curve of compound percent inhibition versus the log of the compound concentration using the GraphPad Prism 7.0 software.

Test [3] relates to PD-L1 (PD-L1 aAPC/CHO-K1 cells, Jurkat-PD-1-NFAT effector cells). Put plainly: Nuclear Factor of Activated T-cells (NFAT) assay. Type of test: cell-based. Particulars: Cricetulus griseus; PD-L1 aAPC/CHO-K1 + Jurkat-PD-1-NFAT cells, 24 hours. On the procedure:
Nuclear Factor of Activated T-cells (NFAT) Assay
PD-L1 aAPC/CHO-K1cells (Promega) were maintained in F-12 medium with addition of 10% FBS, 200 µg/mL Hygromycin B, 250 µg/mL Geneticin (G418). […] The culture media of PD-L1 aAPC/CHO-K1 cells were first replaced with assay medium (RPMI1640 medium with 1% FBS). The PD-L1 aAPC/CHO-K1cells were then added in a white 384-well white clear bottom assay plate (CELLCOAT® Tissue Culture Plates, Greiner Bio-One) at 8000 per well in 10 uL assay medium. […] 5 uL compounds in the assay medium were transferred to the cells with 0.4% DMSO in the final assay at 2 µM. After removing the culture media, 10,000 Jurkat-PD-1-NFAT effector cells in 5 µL assay medium was dispensed into each well. The assay plate was incubated at 37° C., 5% CO2 for 24 hours. […] After 8 minutes incubation at room temperature, luminescence was read at with Pherastar microplate reader (BMG Labtech). The fold of induction (FOI) was calculated based on the ratio of luminescence normalized to the DMSO wells within each assay plate. The maximum percentage of induction was reported based on the ratio between the highest FOI of each compound and the maximum FOI of control compound within each assay plate. Wells with DMSO were served as the negative controls and wells containing control compound with the highest FOI were used as positive controls. EC50 determination was performed by fitting the curve of percent control activity versus the log of the compound concentration using the GraphPad Prism 6.0 software.

For test [4], the target named is T2, PD-⅟PD-L1 (recombinant human PD-L1 protein and human PD-1 protein) (Homo sapiens, UniProt Q9NZQ7).
T2 construct: Recombinant human PD-L1 protein (19-238) with a His-tag at the C-terminus; purchased AcroBiosystems PD1-H5229 (PD-L1); PD1-H5257 (PD-1)
T2 sequence (Q9NZQ7 19-238): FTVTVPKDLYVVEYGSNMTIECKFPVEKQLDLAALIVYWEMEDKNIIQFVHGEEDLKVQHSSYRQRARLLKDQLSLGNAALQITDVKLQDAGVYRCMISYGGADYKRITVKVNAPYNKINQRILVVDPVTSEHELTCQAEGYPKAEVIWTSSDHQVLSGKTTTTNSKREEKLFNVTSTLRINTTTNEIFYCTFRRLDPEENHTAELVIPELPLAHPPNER
As to the kind of experiment: Homogeneous Time-Resolved Fluorescence (HTRF) PD-1/PD-L1 binding assay. Particulars: 3 nM PD1, 10 nM PD-L1, 25° C., PBS pH 7.4. Here is the method:
Homogeneous Time-Resolved Fluorescence (HTRF) PD-⅟PD-L1 Binding Assay
The assays were conducted in a standard black 384-well polystyrene plate with a final volume of 20 uL. Inhibitors were first serially diluted in DMSO and then added to the plate wells before the addition of other reaction components. The final concentration of DMSO in the assay was 1%. The assays were carried out at 25° C. in the PBS buffer (pH 7.4) with 0.05% Tween-20 and 0.1% BSA. […] PD-L1 and PD-1 proteins were diluted in the assay buffer and 10 uL was added to the plate well. Plates were centrifuged and proteins were preincubated with inhibitors for 40 minutes. The incubation was followed by the addition of 10 uL of HTRF detection buffer supplemented with Europium cryptate-labeled anti-human IgG (PerkinElmer-AD0212) specific for Fc and anti-His antibody conjugated to SureLight®-Allophycocyanin (APC, PerkinElmer-AD0059H). […] Final concentrations in the assay were - 3 nM PD1, 10 nM PD-L1, 1 nM europium anti-human IgG and 20 nM anti-His-Allophycocyanin. IC50 determination was performed by fitting the curve of percent control activity versus the log of the inhibitor concentration using the GraphPad Prism 5.0 software.
(In general: Time-resolved FRET reads energy transfer from a long-lived donor to a nearby acceptor.)

Some results are limits rather than exact numbers.

On to `Cc1c(Nc2nccc3cc(CN4CC[C@H](O)C4)cnc23)cccc1-c1cccc(-c2nc3cc(CN4CC[C@H](C(=O)O)C4)cc(C#N)c3o2)c1C` [Compound 3], for which the results for the IC50 in test [1] and in test [2] were less than 10 nM and less than 500 nM, respectively. For the same compound, the EC50 (in general, the concentration giving half of the maximal effect) in test [3] was less than 100 nM.

For the compound `Cc1c(Nc2nccc3cc(CN4CC[C@H](O)C4)cnc23)cccc1-c1cccc(-c2nc3cc(CN4CC[C@@H](C(=O)O)C4)cc(C#N)c3o2)c1C` [Compound 4, (R)-1-((7-cyano-2-(3′-(3-(((S)-3-hydroxypyrrolidin-1-yl)methyl)-1,7-naphthyridin-8-ylamino)-2,2′-dimethylbiphenyl-3-yl)benzo[d]oxazol-5-yl)methyl)pyrrolidine-3-carboxylic acid], the IC50 (in general, the concentration at which inhibition is half-maximal) in test [1] was less than 100 nM; in test [2], less than 500 nM. For the same compound, the EC50 in test [3] is less than 100 nM.

As to `Cc1c(Nc2nccc3cc(CN4CC[C@@H](O)C4)cnc23)cccc1-c1cccc(-c2nc3cc(CN4CC[C@H](C(=O)O)C4)cc(C#N)c3o2)c1C` [Compound 5], the IC50 in test [1] is less than 10 nM; in test [2], less than 500 nM. Also, the EC50 in test [3] is less than 100 nM.

In the case of `Cc1c(-c2nc3cc(CN4CCC(C(=O)O)CC4)cc(C#N)c3o2)cccc1-c1cccc(-c2nc3c(s2)CN(C(=O)CN(C)C)C3)c1C` [Compound 6, 1-((7-cyano-2-(3′-(5-(2-(dimethylamino)acetyl)-5,6-dihydro-4H-pyrrolo [3,4-d]thiazol-2-yl)-2,2′-dimethylbiphenyl-3-yl)benzo[d]oxazol-5-yl)methyl)piperidine-4-carboxylic acid], the IC50 was less than 10 nM in test [1] and less than 100 nM in test [2]. Further, the EC50 in test [3] was less than 100 nM.

Regarding `Cc1c(Nc2nccc3cc(CN4CC[C@@](C)(O)C4)cnc23)cccc1-c1cccc(NC(=O)c2nc3c(n2C)CCN(C[C@H]2CC[C@@H](C(=O)O)CC2)C3)c1Cl` [Compound 11, cis-4-((2-(2-chloro-3′-(3-(((R)-3-hydroay-3-methylpyrrolidin-1-yl)methyl)-1,7-naphthyridin-8-ylamino)-2′-methylbiphenyl-3-ylcarbamoyl)-1-methyl-6,7-dihydro-1H-imidazo[4,5-c]pyridin-5(4H)-yl)methyl)cyclohexanecarboxylic acid], the half-inhibitory concentration (IC50) in test [1] is less than 10 nM; in test [2], less than 100 nM. The EC50 in test [3] was less than 100 nM.

`CCN(C)CC(=O)N1Cc2nc(-c3cccc(-c4cccc(Nc5nccc6cc(CN7CC[C@@H](C(=O)O)C7)cnc56)c4Cl)c3C)sc2C1` [Compound 13, (R)-1-((8-((2-chloro-3′-(5-(N-ethyl-N-methylglycyl)-5,6-dihydro-4H-pyrrolo[3,4-d]thiazol-2-yl)-2′-methyl-[1,1′-biphenyl]-3-yl)amino)-1,7-naphthyridin-3-yl)methyl)pyrrolidine-3-carboxylic acid]: the IC50 in test [1] was less than 10 nM; in test [2] it was less than 100 nM. Further, the EC50 in test [3] is less than 100 nM.

With `Cc1c(-c2nc3c(s2)CN(C(=O)CN(C)C)C3)cccc1-c1cccc(-c2nc3c(s2)CN(C(=O)CN2CC[C@@H](O)C2)C3)c1C` [Compound 14, (R)-2-(dimethylamino)-1-(2-(3′-(5-(2-(3-hydroaypyrrolidin-1-yl)acetyl)-5,6-dihydro-4H-pyrrolo[3,4-d]thiazol-2-yl)-2,2′-dimethylbipheiryl-3-yl)-4H-pyrrolo [3,4-d]thiazol-5(6H)-yl)ethanone], the IC50 in test [1] is less than 100 nM. In addition, the EC50 in test [3] is less than 500 nM.

Turning to `Cc1c(Nc2nc(C(F)F)nc3cc(CN4CC[C@@H](O)C4)cnc23)cccc1-c1cccc(-c2nc3cc(CN4CC[C@@H](C(=O)O)C4)cc(C#N)c3o2)c1C` [Compound 25, (R)-1-((7-cyano-2-(3′-(2-(difluoromethyl)-7-(((R)-3-hydroxypyrrolidin-1-yl)methyl)pyrido[3,2-d]pyrimidin-4-ylamino)-2,2′-dimethylbiphenyl-3-yl)benzo [d]oxazol-5-yl)methyl)pyrrolidine-3-carboxylic acid], the results for the IC50 in test [4] and in test [2] were less than 10 nM and less than 100 nM, respectively. Also, the EC50 in test [3] was less than 100 nM.

As for `Cc1c(Nc2nc(C(F)F)nc3cc(CN4CC[C@@](C)(O)C4)cnc23)cccc1-c1cccc(-c2nc3cc(CN4CCC(C(=O)O)CC4)cc(C#N)c3o2)c1C` [Compound 27, (R)-1-((7-cyano-2-(3′-(2-(difluoromethyl)-7-((3-hydroxy-3-methylpyrrolidin-1-yl)methyl)pyrido[3,2-d]pyrimidin-4-ylamino)-2,2′-dimethylbipheiryl-3-yl)benzo[d]oxazol-5-yl)methyl)piperidine-4-caiboxylic acid], the IC50 in test [4] was less than 10 nM; in test [2] it was less than 100 nM.

Consider `Cc1c(Nc2nc(C(F)F)nc3cc(CN4CC[C@](C)(O)C4)cnc23)cccc1-c1cccc(-c2nc3cc(CN4CCC(C(=O)O)CC4)cc(C#N)c3o2)c1C` [Compound 28, (S)-1-((7-cyano-2-(3′-(2-(difluoromethyl)-7-((3-hydroxy-3-methylpyrrolidin-1-yl)methyl)pyrido[3,2-d]pyrimidin-4-ylamino)-2,2′-dimethylbipheiryl-3-yl)benzo[d]oxazol-5-yl)methyl)pipendine-4-carboxylic acid], for which the figures for the IC50 in test [4] and in test [2] were less than 10 nM and less than 100 nM, respectively.

The record behind these values is patent US20230149409A1, “TREATMENT OF HUMAN PAPILLOMAVIRUS-ASSOCIATED CANCERS BY PD-L1 INHIBITORS” (priority 2021, published 2023).
